Assays:
Test in all cases: Eurofins kinase selectivity profile against 380 other human recombinant kinases (Table S2)
Type in all cases: biochemical
[1] = target: T1, 380 human recombinant protein kinases (Homo sapiens, UniProt O00311); details: Cdc7/cyclinB1(h), read-out: Inhibition rate
T1 construct: purchased Eurofins (Celle Lévescault)
How it was run: (§1)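 To gauge specificity for MK2, the compound is profiled externally at various concentrations on recombinant human kinases, 380 in total.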

[2] = target: T2, 380 human recombinant protein kinases (Homo sapiens, UniProt P16234); details: PDGFRα(h), read-out: Inhibition rate
T2 construct: purchased Eurofins (Celle Lévescault)
How it was run: as §1

[3] = target: T3, 380 human recombinant protein kinases (Homo sapiens, UniProt P54756); details: EphA5(h), read-out: Inhibition rate
T3 construct: purchased Eurofins (Celle Lévescault)
How it was run: as §1

[4] = target: T4, 380 human recombinant protein kinases (Homo sapiens, UniProt P54762); details: EphB1(h), read-out: Inhibition rate
T4 construct: purchased Eurofins (Celle Lévescault)
T4 sequence (P54762 18-984): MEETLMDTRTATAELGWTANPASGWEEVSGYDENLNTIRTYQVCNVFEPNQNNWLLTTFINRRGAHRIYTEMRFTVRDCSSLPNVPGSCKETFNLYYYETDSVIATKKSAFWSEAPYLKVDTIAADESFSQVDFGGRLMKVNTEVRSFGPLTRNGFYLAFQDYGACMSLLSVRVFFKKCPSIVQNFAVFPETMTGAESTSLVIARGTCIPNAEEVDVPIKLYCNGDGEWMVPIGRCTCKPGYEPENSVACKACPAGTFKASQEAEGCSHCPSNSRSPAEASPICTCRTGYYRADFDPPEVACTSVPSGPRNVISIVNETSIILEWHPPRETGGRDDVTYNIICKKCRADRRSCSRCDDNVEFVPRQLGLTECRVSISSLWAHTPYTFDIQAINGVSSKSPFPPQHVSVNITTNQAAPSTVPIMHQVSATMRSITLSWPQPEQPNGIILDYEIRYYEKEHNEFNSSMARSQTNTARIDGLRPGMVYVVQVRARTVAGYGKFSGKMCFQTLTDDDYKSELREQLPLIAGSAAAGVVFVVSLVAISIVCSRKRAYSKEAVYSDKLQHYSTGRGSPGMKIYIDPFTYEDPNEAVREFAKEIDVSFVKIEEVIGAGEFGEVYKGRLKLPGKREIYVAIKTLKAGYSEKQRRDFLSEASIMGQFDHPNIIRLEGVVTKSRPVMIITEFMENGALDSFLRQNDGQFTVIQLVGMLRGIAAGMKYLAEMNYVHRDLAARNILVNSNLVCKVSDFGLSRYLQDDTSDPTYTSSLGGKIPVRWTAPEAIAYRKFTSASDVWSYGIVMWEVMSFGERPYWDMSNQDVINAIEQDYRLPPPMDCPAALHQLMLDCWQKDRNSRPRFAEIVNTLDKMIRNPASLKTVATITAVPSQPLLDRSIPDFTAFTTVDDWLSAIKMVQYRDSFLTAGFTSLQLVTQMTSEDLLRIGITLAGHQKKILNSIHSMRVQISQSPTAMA
How it was run: as §1

[5] = target: T5, 380 human recombinant protein kinases (Homo sapiens, UniProt Q6PHR2); details: ULK3(h), read-out: Inhibition rate (%)
T5 construct: purchased Eurofins (Celle Lévescault)
T5 sequence (Q6PHR2 1-472): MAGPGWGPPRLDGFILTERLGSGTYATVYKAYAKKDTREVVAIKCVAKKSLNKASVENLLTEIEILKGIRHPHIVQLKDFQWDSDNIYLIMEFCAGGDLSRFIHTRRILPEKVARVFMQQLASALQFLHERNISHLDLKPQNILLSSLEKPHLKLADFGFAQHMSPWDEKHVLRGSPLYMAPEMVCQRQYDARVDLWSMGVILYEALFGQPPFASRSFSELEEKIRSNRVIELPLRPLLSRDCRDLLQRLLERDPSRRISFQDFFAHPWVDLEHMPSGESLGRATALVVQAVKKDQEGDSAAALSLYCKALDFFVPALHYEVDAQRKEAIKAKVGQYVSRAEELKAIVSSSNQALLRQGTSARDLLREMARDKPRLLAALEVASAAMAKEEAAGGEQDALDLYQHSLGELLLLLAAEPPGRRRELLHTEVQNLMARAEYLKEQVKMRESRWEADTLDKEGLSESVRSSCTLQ
How it was run: as §1

[6] = target: T6, 380 human recombinant protein kinases (Homo sapiens, UniProt Q86UX6); details: STK32C(h), read-out: Inhibition rate (%)
T6 construct: purchased Eurofins (Celle Lévescault)
How it was run: as §1

T3 sequence (P54756 25-1037): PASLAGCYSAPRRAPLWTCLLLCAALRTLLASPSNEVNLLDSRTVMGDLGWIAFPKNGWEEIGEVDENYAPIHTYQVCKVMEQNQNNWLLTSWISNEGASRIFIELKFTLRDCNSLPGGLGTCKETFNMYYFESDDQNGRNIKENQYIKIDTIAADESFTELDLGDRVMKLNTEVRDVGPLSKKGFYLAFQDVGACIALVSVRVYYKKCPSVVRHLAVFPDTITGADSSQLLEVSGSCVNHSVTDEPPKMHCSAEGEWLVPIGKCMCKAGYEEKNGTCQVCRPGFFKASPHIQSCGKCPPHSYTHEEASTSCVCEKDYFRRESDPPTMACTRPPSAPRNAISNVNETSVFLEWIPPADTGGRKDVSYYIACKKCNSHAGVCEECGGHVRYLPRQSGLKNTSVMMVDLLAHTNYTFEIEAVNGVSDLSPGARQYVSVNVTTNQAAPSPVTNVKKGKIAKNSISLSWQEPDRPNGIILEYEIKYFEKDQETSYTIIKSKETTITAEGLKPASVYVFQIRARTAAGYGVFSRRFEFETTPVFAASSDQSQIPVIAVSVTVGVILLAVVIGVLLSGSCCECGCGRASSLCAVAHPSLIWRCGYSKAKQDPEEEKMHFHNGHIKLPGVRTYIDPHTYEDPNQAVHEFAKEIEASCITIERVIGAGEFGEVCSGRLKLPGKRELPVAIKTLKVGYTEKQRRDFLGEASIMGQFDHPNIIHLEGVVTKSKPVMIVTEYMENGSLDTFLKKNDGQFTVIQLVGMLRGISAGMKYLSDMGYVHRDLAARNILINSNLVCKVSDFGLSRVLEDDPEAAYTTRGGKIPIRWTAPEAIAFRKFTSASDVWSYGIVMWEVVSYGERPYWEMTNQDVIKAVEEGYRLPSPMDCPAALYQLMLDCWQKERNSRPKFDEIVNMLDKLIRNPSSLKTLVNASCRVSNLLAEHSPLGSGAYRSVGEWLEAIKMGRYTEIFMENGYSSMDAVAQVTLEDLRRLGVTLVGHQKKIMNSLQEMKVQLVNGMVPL
T2 sequence (P16234 24-1089): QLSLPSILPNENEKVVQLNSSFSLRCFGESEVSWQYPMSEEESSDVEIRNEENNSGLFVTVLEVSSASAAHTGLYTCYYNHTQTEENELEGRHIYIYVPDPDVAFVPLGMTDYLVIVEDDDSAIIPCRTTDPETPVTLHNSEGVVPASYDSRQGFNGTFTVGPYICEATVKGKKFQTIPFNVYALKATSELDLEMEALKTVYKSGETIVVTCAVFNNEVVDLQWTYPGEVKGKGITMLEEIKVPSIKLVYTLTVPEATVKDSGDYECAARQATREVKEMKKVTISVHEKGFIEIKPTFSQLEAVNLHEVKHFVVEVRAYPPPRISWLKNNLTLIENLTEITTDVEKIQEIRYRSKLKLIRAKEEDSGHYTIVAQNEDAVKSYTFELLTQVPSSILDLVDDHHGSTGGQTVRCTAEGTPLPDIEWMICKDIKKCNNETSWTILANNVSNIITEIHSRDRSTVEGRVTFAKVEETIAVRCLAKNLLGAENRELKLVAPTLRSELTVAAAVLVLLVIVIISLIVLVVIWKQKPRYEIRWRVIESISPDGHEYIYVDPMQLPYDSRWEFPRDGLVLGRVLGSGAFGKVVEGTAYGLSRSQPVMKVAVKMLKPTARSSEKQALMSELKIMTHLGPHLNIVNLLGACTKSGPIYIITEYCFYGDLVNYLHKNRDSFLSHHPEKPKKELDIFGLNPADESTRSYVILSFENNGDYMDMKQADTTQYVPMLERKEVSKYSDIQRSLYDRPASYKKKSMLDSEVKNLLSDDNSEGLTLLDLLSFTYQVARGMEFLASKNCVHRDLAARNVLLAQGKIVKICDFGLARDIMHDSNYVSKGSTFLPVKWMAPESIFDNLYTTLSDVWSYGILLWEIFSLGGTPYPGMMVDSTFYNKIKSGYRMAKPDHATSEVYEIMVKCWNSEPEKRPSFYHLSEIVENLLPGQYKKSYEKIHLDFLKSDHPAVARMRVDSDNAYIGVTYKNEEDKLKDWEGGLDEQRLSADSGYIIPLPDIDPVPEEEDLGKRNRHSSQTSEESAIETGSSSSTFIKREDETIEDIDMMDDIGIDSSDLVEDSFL
T6 sequence (Q86UX6 whole entry): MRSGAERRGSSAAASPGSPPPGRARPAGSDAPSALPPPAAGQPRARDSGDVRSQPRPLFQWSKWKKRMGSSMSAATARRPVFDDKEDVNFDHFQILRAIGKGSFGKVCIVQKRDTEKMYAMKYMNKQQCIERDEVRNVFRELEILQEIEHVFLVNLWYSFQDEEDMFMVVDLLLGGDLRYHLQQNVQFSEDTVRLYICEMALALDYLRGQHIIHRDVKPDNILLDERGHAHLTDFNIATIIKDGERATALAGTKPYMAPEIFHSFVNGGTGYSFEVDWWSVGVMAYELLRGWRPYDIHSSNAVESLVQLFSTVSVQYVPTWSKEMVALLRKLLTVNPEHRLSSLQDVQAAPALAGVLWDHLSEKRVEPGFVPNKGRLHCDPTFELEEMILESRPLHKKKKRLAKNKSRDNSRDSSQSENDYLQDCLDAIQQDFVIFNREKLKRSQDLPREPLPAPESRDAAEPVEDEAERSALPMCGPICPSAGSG
T1 sequence (O00311 whole entry): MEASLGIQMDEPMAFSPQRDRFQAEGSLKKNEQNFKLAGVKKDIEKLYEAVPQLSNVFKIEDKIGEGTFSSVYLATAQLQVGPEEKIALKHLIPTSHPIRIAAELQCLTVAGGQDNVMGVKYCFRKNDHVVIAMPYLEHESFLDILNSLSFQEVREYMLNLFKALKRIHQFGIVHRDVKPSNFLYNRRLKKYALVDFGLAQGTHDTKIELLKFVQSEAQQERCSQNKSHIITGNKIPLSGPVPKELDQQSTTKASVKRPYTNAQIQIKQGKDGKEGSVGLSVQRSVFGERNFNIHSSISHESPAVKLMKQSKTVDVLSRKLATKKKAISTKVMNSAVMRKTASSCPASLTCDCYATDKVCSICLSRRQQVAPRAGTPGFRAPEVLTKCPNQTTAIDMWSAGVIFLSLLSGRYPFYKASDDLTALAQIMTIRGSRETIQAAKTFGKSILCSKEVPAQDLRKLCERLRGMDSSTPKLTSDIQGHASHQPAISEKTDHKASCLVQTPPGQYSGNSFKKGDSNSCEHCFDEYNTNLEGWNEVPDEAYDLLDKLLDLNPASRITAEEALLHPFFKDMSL

Work on `C=CC(=O)Nc1cc(-c2cc(-c3cc4c([nH]3)CCNC4=O)ccn2)ccc1OC(F)(F)F` [compound 11] yielded an inhibition at 0.01 µM ([1]; 10 nM) of 8%, an inhibition at 0.1 µM ([1]; 100 nM) of 16% and an inhibition at 1 µM ([1]; 1000 nM) of 22%. For the same compound, the inhibition at 0.01 µM ([2]; 10 nM) was -5%, the inhibition at 0.1 µM ([2]; 100 nM) was -3% and the inhibition at 1 µM ([2]; 1000 nM) was -2%. The inhibition at 0.01 µM ([3]; 10 nM) was -1%, the inhibition at 0.1 µM ([3]; 100 nM) was 4% and the inhibition at 1 µM ([3]; 1000 nM) was 1%. The inhibition at 0.01 µM ([4]; 10 nM) was -17%, the inhibition at 0.1 µM ([4]; 100 nM) was -12% and the inhibition at 1 µM ([4]; 1000 nM) was 2%. The inhibition at 0.01 µM ([5]; 10 nM) was 8%, the inhibition at 0.1 µM ([5]; 100 nM) was 3% and the inhibition at 1 µM ([5]; 1000 nM) was -4%. It also gave an inhibition at 0.01 µM ([6]; 10 nM) of 0%, an inhibition at 0.1 µM ([6]; 100 nM) of 4% and an inhibition at 1 µM ([6]; 1000 nM) of 1%.

— publication PMC11233931, “Remodeling tumor‐associated macrophage for anti‐cancer effects by rational design of irreversible inhibition of mitogen‐activated protein kinase‐activated protein kinase 2” (MedComm, 2024)
